The values that follow come from US20160045505A1, “COMPOUNDS AND COMPOSITIONS FOR THE TREATMENT OF PARASITIC DISEASES” (NOVARTIS AG, priority 2013, published 2016).

Each structure is given as a SMILES string. Read-outs that look alike come from different tables or passages of the source.

The test system of assay [1] is Trypanosoma brucei Lister 427 strain, bloodstream form. The assay can be described thus: Assay for proliferation of kinetoplastid parasite Trypanosoma brucei (Cell Titer Glo, 48 hours). It counts as cell-based. To be noted: Trypanosoma brucei, T. brucei Lister 427 bloodstream form, read-out: T. brucei EC50. An excerpt:
Assay for Proliferation of Kinetoplastid Parasite Trypanosoma brucei.
The proliferation is quantified by the addition of Cell Titer Glo (Promega®) a luminescent cell viability assay that measures the number of viable cells in culture based on the quantification of cellular ATP amount, which is an indicator of metabolically active cells.
The following assay illustrates the invention without in any way limiting the scope of the invention. This parasite proliferation assay measures the increase in parasite growth using an assay that measures ATP activity, Cell Titer Glo®.
Trypanosoma brucei Lister 427 strain is grown in HMI-9 Trypanosome media for T. brucei bloodstream form. 30 μl of HMI-9 media is dispensed into 384 well assay plates. 200 nl of compounds of the invention (in DMSO), including anti-trypanosome controls (Pentamidine and suramin), are then transferred into the assay plates, as well as DMSO alone to serve as a negative control for inhibition. Then 25 μl of a suspension of T. brucei culture in HMI-9 media is dispensed into the assay plates. The final concentration of parasites in culture corresponds to 1.7% of 0.5 uM ATP activity with Cell Titer Glo® in HMI-9 media. The plates are placed in a 37° C. incubator for 48 hours in an atmospheric environment containing 5% CO2. 40 μl of Cell Titer Glo® is dispensed into the plates. The plates are then read for luminescence. The percentage inhibition of 50%, EC50, is calculated for each compound.
(In general: In ATP-based viability assays light output follows the ATP content of the culture.)

In assay [2] the test system is Leishmania donovani axenic amastigote parasites. The assay can be described thus: Leishmania donovani axenic amastigote proliferation assay (Cell TiterGlo luminescence, 2 day incubation). It counts as cell-based. To be noted: Leishmania donovani.
For assay [3], the system named is L. donovani HU3 strain in mouse peritoneal macrophages. The assay can be described thus: Assay for proliferation of Leishmania parasites in infected mouse peritoneal macrophages (SybrGreen staining, high-content imaging, 5 days). In kind it is cell-based, Leishmania donovani. The settings on record: Leishmania donovani, Peritoneal macrophage.
Assay [4] relates to Trypanosoma cruzi amastigotes (Tulahuen strain expressing Lac-Z) cultured in 3T3 fibroblast cells. The assay can be described thus: microbe, parasite or virus in culture. It counts as cell-based. The settings on record: Trypanosoma cruzi, TULAHUEN, Fibroblast.
The mark [5] stands for this setting: axenic amastigotes, inhibition of proliferation, read-out: L. donovani amastigotes EC50.
Where [6] appears, read: L. donovani in mouse peritoneal macrophages, inhibition of proliferation, read-out: L. donovani Macrophage EC50.
Where [7] appears, read: L. donovani axenic amastigotes, read-out: L. donovani amastigotes EC50.
Setting [8] is: T. cruzi amastigotes in 3T3 fibroblast cells, read-out: T cruzi EC50.
[9] abbreviates: L. donovani in mouse peritoneal macrophages, read-out: L. donovani Macrophage EC50.
[10] abbreviates: read-out: L. donovani amastigotes EC50 (μM).
Setting [11] is: read-out: L. donovani Macrophage EC50 (μM).

`CC(C)OC(=O)Nc1cnc2nc(-c3cc(NC(=O)N4CCC(F)(F)C4)ccc3Cl)cn2c1` [Compound 4, isopropyl (2-(2-chloro-5-(3,3-difluoropyrrolidine-1-carboxamido)phenyl)imidazo[1,2-a]pyrimidin-6-yl)carbamate]: the EC50 (as a rule, the concentration that produces a half-maximal response) in assay [1] (inhibition of proliferation) was determined as 2360 nM; in assay [2] (setting [5]), 1.34 µM; in assay [3] (setting [6]), 2.22 µM.
For `CCN(C)C(=O)Nc1cccc(-c2cn3cc(NC(=O)OC(C)C)cnc3n2)c1` [Compound 6], the EC50 is 664 nM in assay [1] (inhibition of proliferation), 22.3 µM in assay [2] (setting [5]) and 9.2 µM in assay [3] (setting [6]).
On the same counts, the results for `CCN(C)C(=O)Nc1ccc(F)c(-c2cn3cc(NC(=O)OC(C)C)cnc3n2)c1` [Compound 9] are 191 nM, 2.48 µM and 1.32 µM.
On the same counts, the results for `CCOC(=O)Nc1cccc(-c2cn3cc(NC(=O)OC(C)C)cnc3n2)c1` [Compound 10] are 231 nM, 2.98 µM and 2.36 µM.
For the compound `CC(C)OC(=O)Nc1cnc2nc(-c3cc(NC(=O)c4ccco4)ccc3F)cn2c1` [Compound 12, isopropyl (2-(2-fluoro-5-(furan-2-carboxamido)phenyl)imidazo[1,2-a]pyrimidin-6-yl)carbamate], in assay [1] (inhibition of proliferation), the EC50 is 65.6 nM.
The same measure, in the same setting: the value for `CC(C)OC(=O)Nc1ccc(F)c(-c2cn3cc(NC(=O)OC(C)C)cnc3n2)c1` [Compound 40] was 185 nM.
Still for that read-out and setting: the value for `Cc1cnc(C(=O)Nc2cccc(-c3cn4cc(NC(=O)OC(C)C)cnc4n3)c2)s1` [Compound 41] was 4400 nM; that for `CC(C)OC(=O)Nc1cnc2nc(-c3cccc(NC(=O)C4CC4)c3)cn2c1` [Compound 42] was 1700 nM.
As to `Cc1nc(C)c(C(=O)Nc2ccc(F)c(-c3cn4cc(NC(=O)c5nccn5C)cnc4n3)c2)o1` [Compound 174], in assay [1] (inhibition of proliferation), the EC50 was found to be 483 nM.
Consider `O=C(Nc1ccc(F)c(-c2cn3cc(Br)cnc3n2)c1)C1CCCC1` [Compound 196, N-(3-(6-bromoimidazo[1,2-a]pyrimidin-2-yl)-4-fluorophenyl)cyclopentanecarboxamide], for which the concentration for a half-maximal effect (EC50) in assay [1] (inhibition of proliferation) stood at 1860 nM; in assay [2] (setting [5]) it was 6.52 µM.
On the same counts, the results for `O=C(Nc1ccc(F)c(-c2cn3cc(Br)cnc3n2)c1)c1ccccc1` [Compound 197] are 491 nM and 2.49 µM.
In the case of `O=C(Nc1ccc(F)c(-c2cn3cc(Br)cnc3n2)c1)N1CCOCC1` [Compound 515], the EC50 in assay [1] came out at 13500 nM; in assay [2] (setting [7]), 7.37 µM.
`Cc1nc(C)c(C(=O)Nc2ccc(Cl)c(-c3cn4cc(N5CCOC5=O)cnc4n3)c2)o1` [Compound 520, N-(4-chloro-3-(6-(2-oxooxazolidin-3-yl)imidazo[1,2-a]pyrimidin-2-yl)phenyl)-2,4-dimethyloxazole-5-carboxamide]: the EC50 in assay [2] (setting [7]) is more than 25 µM; in assay [4] (setting [8]) it was more than 20 µM; in assay [3] (setting [9]), more than 50 µM.
Turning to `NNC(=O)Nc1cnc2nc(-c3cc(NC(=O)N4CCCC4)ccc3F)cn2c1` [Compound 521, N-(4-fluoro-3-(6-(hydrazinecarboxamido)imidazo[1,2-a]pyrimidin-2-yl)phenyl)pyrrolidine-1-carboxamide], the figures for the EC50 in assay [2] (setting [7]), in assay [4] (setting [8]) and in assay [3] (setting [9]) were 4.68 µM, 9.23 µM and 38.2 µM, respectively.
As to `CC(C)NNC(=O)Nc1cnc2nc(-c3cc(NC(=O)N4CCCC4)ccc3F)cn2c1` [Compound 522], the EC50 in assay [2] (setting [7]) was 19.3 µM; in assay [4] (setting [8]) it was more than 20 µM; in assay [3] (setting [9]), more than 50 µM.
Regarding `CC(=O)Nc1cnc2nc(-c3cc(NC(=O)c4oc(C)nc4C)ccc3F)cn2c1` [Compound 525, N-(3-(6-acetamidoimidazo[1,2-a]pyrimidin-2-yl)-4-fluorophenyl)-2,4-dimethyloxazole-5-carboxamide], the EC50 in assay [2] (setting [10]) is 5.35 µM; in assay [4] (read-out: T cruzi EC50 (μM)) it was more than 20 µM; in assay [3] (setting [11]) it was 21.1 µM.
In the case of `O=CNc1ccc(F)c(-c2cn3cc(Br)cnc3n2)c1` [Compound 531, N-(3-(6-bromoimidazo[1,2-a]pyrimidin-2-yl)-4-fluorophenyl)formamide], the EC50 is more than 50000 nM in assay [1] and more than 25 µM in assay [2] (setting [7]).
`O=CNc1cnc2nc(-c3cc(NC(=O)N4CCCC4)ccc3F)cn2c1` [Compound 533, N-(4-fluoro-3-(6-formamidoimidazo[1,2-a]pyrimidin-2-yl)phenyl)pyrrolidine-1-carboxamide]: the EC50 in assay [1] was 1540 nM.
Consider `O=C(Nc1ccc(F)c(-c2cn3cc(-n4cn[nH]c4=O)cnc3n2)c1)N1CCCC1` [Compound 534, N-(4-fluoro-3-(6-(5-oxo-1H-1,2,4-triazol-4(5H)-yl)imidazo[1,2-a]pyrimidin-2-yl)phenyl)pyrrolidine-1-carboxamide], for which the EC50 was more than 23.7 µM in assay [2] (setting [7]), more than 20 µM in assay [4] (setting [8]) and more than 50 µM in assay [3] (setting [9]).
In the same order, the values of `COc1cnc2nc(-c3cc(NC(=O)N4CCCC4)ccc3F)cn2c1` [Compound 536, N-(4-fluoro-3-(6-methoxyimidazo[1,2-a]pyrimidin-2-yl)phenyl)pyrrolidine-1-carboxamide] are 0.348 µM, 0.153 µM and 2 µM.
In the same order, the values of `Cc1nc(C)c(C(=O)N(C)c2ccc(F)c(-c3cn4cc(NC(C)C)cnc4n3)c2)o1` [Compound 557] are more than 25 µM, more than 20 µM and more than 50 µM.
In the same order, the values of `Cc1nc(C)c(C(=O)Nc2ccc(F)c(-c3cn4cc(N5CCC5)cnc4n3)c2)o1` [Compound 559] are more than 25 µM, more than 20 µM and more than 50 µM.
On to `O=C(Nc1ccc(F)c(-c2cn3cc(OCC4CC4)cnc3n2)c1)N1CCCC1` [Compound 562, N-(3-(6-(cyclopropylmethoxy)imidazo[1,2-a]pyrimidin-2-yl)-4-fluorophenyl)pyrrolidine-1-carboxamide], for which the figures for the EC50 in assay [2] (setting [7]), in assay [4] (setting [8]) and in assay [3] (setting [9]) were 0.16 µM, 0.046 µM and 0.245 µM, respectively.
For the compound `Cc1nc(C)c(C(=O)Nc2ccc(F)c(-c3cn4cc(N5CCN(C)CC5)cnc4n3)c2)o1` [Compound 565, N-(4-fluoro-3-(6-(4-methylpiperazin-1-yl)imidazo[1,2-a]pyrimidin-2-yl)phenyl)-2,4-dimethyloxazole-5-carboxamide], the values for the EC50 in assay [2] (setting [10]), in assay [4] (read-out: T cruzi EC50 (μM)) and in assay [3] (setting [11]) were 12.3 µM, 11.2 µM and 6.27 µM, respectively.
Turning to `Nc1cnc2nc(-c3ccc(F)c(NC(=O)N4CCCC4)c3)cn2c1` [Compound 568, N-(5-(6-aminoimidazo[1,2-a]pyrimidin-2-yl)-2-fluorophenyl)pyrrolidine-1-carboxamide], the EC50 in assay [1] came to 9840 nM.
On to `CC(=O)Nc1ccc(F)c(-c2cn3cc(N)cnc3n2)c1` [Compound 569], for which the values for the EC50 in assay [1] and in assay [2] (setting [7]) were more than 50000 nM and more than 25 µM, respectively.
`Cc1nc(C)c(C(=O)Nc2ccc(F)c(-c3cn4cc(-c5cccc(N6CCNCC6)n5)cnc4n3)c2)o1` [Compound 572]: the EC50 in assay [2] (setting [7]) came to 1.94 µM; in assay [4] (setting [8]), 0.394 µM; in assay [3] (setting [9]), 2.36 µM.
On the same counts, the results for `O=C(Nc1ccc(F)c(-c2cn3cc(-c4ccccc4)cnc3n2)c1)c1ccc(F)o1` [Compound 576, 5-fluoro-N-(4-fluoro-3-(6-phenylimidazo[1,2-a]pyrimidin-2-yl)phenyl)furan-2-carboxamide] are 0.526 µM, 0.05 µM and 0.807 µM.
Regarding `Nc1cnc2nc(-c3cccc(NC(=O)N4CCCC4)c3F)cn2c1` [Compound 580], the EC50 is more than 50000 nM in assay [1] and more than 25 µM in assay [2] (setting [7]).
With `Cc1nc(C)c(C(=O)Nc2ccc(F)c(-c3cn4cc(-c5ccc(CCO)cn5)cnc4n3)c2)o1` [Compound 585, N-(4-fluoro-3-(6-(5-(2-hydroxyethyl)pyridin-2-yl)imidazo[1,2-a]pyrimidin-2-yl)phenyl)-2,4-dimethyloxazole-5-carboxamide], in assay [1], the EC50 was found to be 414 nM.
As for `CC1(c2nc(Nc3ccc(F)c(-c4cn5cc(C6CC6)cnc5n4)c3)no2)COC1` [Compound 595, N-(3-(6-cyclopropylimidazo[1,2-a]pyrimidin-2-yl)-4-fluorophenyl)-5-(3-methyloxetan-3-yl)-1,2,4-oxadiazol-3-amine], the figures for the half-maximal effective concentration (EC50) in assay [2] (setting [7]), in assay [4] (setting [8]) and in assay [3] (setting [9]) were more than 25 µM, 9.17 µM and more than 50 µM, respectively.
On the same counts, the results for `CC(C)(CO)c1nc(Nc2ccc(F)c(-c3cn4cc(C5CC5)cnc4n3)c2)no1` [Compound 596] are more than 21.2 µM, 3.74 µM and 0.075 µM.
